Data from ChEMBL document CHEMBL5335772, “EGCG adjuvant chemotherapy: Current status and future perspectives” (Eur J Med Chem, 2023).

Experiments:
MCF7 = experiment: Induction of apoptosis in human MCF7 cells in presence of EGCG at 50 uM
DLD-1 [1] = experiment: Antiproliferative activity against human DLD-1 cells assessed as reduction in cell growth incubated for 24 hrs by MTT assay; assay type: functional, cell-based; conditions: DLD-1, 24 h
DLD-1 [2] = experiment: Induction of apoptosis in human DLD-1 cells in presence of EGCG at 50 uM; assay type: functional, cell-based
BEL-7404 tumor cell line [3] = experiment: Antiproliferative activity against human BEL-7404 tumor cell line assessed as inhibition of cell proliferation incubated for 72 hrs by MTT assay; assay type: functional, cell-based; conditions: BEL-7404, 72 h
ADR5000 cell line [4] = experiment: Antiproliferative activity against human CEM/ADR5000 cells assessed as reduction in cell viability incubated for 48 hrs by MTT assay; assay type: functional, cell-based; conditions: ADR5000, 48 h
BEL-7404 tumor cell line [5] = experiment: Induction of apoptosis in human BEL-7404 tumor cell line in presence of EGCG at 30.5 uM; assay type: functional, cell-based
ADR5000 cell line [6] = experiment: Induction of apoptosis in human CEM/ADR5000 cells in presence of EGCG at 20 uM; assay type: functional, cell-based

## CC/C(=C(\c1ccccc1)c1ccc(OCCN(C)C)cc1)c1ccccc1 [TAMOXIFEN]
MCF7
  IC50: 5.8 µM

## O=c1[nH]cc(F)c(=O)[nH]1 [FLUOROURACIL]
DLD-1 [1]
  IC50: 150 µM
DLD-1 [2]
  IC50: 11 µM

## COc1cccc2c1C(=O)c1c(O)c3c(c(O)c1C2=O)C[C@@](O)(C(=O)CO)C[C@@H]3O[C@H]1C[C@H](N)[C@H](O)[C@H](C)O1 [DOXORUBICIN]
BEL-7404 tumor cell line [3]
  IC50: 1620 nM
ADR5000 cell line [4]
  IC50: 88.9 µM
BEL-7404 tumor cell line [5]
  IC50: 3.28 µM
ADR5000 cell line [6]
  IC50: 29.9 µM
